According to ChEMBL document CHEMBL5512649, “Drug development and potential targets for Cushing's syndrome” (Eur J Med Chem, 2024):
Blank lines part the entries; values can stand above or below the compound they belong to.

Legend:
[1] = molecular target: Nuclear factor NF-kappa-B complex (Homo sapiens, UniProt P19838+Q00653+Q04206); assay: Inhibition of NF-kappaB (unknown origin); type: protein-complex assay
[2] = molecular target: Cyclin-dependent kinase 6 (Homo sapiens, UniProt Q00534); assay: Inhibition of CDK6 (unknown origin)
[3] = molecular target: ATP-dependent translocase ABCB1 (Homo sapiens, UniProt P08183); assay: Inhibition of MDR1 (unknown origin)
Chain of ATP-dependent translocase ABCB1 (P08183 whole entry): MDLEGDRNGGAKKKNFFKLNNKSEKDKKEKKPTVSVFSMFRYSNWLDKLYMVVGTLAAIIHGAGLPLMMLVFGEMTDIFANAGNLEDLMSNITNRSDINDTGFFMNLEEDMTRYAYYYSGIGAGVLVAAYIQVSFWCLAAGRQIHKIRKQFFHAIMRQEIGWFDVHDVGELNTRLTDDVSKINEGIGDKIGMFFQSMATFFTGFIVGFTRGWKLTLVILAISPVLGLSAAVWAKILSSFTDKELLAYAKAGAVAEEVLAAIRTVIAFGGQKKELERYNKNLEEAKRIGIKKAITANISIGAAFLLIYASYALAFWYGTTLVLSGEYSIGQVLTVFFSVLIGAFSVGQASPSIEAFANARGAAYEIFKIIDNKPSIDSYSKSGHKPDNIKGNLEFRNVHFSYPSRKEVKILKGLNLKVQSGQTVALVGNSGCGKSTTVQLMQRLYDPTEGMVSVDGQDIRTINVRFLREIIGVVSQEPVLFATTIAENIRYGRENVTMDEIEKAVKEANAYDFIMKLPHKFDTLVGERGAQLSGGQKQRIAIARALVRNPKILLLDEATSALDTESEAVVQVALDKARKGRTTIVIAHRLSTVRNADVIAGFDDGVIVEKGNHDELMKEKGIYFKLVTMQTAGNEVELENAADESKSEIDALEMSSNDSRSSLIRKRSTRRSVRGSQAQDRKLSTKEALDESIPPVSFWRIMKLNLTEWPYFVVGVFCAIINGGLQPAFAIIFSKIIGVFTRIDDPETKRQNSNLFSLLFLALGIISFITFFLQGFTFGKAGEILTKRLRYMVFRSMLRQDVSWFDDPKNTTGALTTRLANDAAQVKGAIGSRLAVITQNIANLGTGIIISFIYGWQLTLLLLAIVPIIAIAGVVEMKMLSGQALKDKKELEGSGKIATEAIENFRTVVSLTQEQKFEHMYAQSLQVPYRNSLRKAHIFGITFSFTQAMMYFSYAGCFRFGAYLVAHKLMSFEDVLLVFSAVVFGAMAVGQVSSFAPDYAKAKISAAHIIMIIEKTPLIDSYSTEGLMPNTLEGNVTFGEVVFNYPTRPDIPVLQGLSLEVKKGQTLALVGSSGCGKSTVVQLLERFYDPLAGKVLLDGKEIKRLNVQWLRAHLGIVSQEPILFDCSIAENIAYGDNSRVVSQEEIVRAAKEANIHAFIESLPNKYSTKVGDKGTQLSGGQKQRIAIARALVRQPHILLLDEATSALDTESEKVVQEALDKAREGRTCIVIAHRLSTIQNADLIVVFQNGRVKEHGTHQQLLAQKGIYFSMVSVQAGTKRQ

[4] = molecular target: DNA (cytosine-5)-methyltransferase 1 (Homo sapiens, UniProt P26358); assay: Inhibition of DNMT1 (unknown origin)
Chain of DNA (cytosine-5)-methyltransferase 1 (P26358 whole entry): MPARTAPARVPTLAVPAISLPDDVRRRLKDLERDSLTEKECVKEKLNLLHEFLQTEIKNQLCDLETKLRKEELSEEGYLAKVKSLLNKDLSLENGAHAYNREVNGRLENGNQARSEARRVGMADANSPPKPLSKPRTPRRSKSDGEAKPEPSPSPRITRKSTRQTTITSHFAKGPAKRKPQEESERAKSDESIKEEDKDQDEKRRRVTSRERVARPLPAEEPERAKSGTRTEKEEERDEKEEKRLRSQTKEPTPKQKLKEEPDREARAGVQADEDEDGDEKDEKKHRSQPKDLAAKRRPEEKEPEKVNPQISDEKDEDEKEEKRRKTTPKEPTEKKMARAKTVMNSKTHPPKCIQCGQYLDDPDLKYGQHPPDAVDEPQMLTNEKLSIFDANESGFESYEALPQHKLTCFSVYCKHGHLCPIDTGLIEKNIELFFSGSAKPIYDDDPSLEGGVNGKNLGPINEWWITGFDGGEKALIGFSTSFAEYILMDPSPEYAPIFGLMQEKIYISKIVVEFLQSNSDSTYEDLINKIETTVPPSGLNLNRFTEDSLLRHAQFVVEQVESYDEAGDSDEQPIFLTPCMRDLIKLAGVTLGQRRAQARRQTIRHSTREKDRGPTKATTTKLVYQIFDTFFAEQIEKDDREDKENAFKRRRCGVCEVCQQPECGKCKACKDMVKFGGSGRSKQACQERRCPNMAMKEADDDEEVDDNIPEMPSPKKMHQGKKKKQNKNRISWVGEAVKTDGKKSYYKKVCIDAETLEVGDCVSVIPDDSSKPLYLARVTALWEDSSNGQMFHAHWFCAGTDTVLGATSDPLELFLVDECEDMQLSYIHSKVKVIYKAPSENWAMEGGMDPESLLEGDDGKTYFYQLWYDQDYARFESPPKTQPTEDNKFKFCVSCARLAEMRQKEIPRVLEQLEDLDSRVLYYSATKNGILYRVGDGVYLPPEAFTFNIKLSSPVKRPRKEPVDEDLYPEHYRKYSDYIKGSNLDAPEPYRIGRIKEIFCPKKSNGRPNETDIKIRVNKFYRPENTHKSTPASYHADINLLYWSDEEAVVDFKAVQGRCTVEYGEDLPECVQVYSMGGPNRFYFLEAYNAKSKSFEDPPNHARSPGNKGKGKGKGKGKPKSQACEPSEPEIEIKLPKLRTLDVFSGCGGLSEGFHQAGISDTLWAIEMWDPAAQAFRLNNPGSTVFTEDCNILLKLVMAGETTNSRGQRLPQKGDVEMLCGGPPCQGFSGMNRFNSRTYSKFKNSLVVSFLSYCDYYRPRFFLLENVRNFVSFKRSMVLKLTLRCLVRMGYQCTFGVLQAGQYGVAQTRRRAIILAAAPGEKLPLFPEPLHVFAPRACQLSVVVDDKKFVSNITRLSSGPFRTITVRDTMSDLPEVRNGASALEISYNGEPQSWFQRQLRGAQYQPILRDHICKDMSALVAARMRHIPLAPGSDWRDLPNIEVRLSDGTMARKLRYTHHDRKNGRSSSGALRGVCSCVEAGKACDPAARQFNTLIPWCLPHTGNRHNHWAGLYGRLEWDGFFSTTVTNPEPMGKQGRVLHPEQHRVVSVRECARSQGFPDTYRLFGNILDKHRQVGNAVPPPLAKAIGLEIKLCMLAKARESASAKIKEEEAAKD

[5] = molecular target: T1, Histone acetyltransferase type B catalytic subunit (Homo sapiens, UniProt O14929); assay: Inhibition of HAT1 (unknown origin)
T1 sequence (O14929 whole entry): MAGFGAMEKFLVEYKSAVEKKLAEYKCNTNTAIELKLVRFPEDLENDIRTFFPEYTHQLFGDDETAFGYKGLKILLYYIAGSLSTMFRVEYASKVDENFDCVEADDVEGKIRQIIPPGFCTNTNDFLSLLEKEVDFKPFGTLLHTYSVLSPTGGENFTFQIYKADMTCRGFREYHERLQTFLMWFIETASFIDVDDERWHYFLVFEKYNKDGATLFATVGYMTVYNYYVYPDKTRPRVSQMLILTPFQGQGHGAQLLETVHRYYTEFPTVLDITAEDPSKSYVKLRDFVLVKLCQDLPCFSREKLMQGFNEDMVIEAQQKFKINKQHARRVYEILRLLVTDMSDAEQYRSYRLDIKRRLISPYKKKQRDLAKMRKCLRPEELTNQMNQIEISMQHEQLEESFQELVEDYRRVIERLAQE

[6] = molecular target: Cyclin-dependent kinase 1 (Homo sapiens, UniProt P06493); assay: Inhibition of CDK1 (unknown origin)
Chain of Cyclin-dependent kinase 1 (P06493 whole entry): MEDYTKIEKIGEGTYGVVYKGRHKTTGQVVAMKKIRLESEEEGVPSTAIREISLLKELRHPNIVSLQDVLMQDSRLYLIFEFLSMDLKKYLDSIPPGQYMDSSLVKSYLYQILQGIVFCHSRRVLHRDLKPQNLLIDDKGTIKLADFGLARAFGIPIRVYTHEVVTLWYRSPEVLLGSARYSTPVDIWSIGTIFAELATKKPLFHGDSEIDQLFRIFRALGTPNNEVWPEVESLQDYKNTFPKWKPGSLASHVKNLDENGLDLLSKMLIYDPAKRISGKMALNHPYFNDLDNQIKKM

[7] = molecular target: Cyclin-dependent kinase 9 (Homo sapiens, UniProt P50750); assay: Inhibition of CDK9 (unknown origin)
Chain of Cyclin-dependent kinase 9 (P50750 whole entry): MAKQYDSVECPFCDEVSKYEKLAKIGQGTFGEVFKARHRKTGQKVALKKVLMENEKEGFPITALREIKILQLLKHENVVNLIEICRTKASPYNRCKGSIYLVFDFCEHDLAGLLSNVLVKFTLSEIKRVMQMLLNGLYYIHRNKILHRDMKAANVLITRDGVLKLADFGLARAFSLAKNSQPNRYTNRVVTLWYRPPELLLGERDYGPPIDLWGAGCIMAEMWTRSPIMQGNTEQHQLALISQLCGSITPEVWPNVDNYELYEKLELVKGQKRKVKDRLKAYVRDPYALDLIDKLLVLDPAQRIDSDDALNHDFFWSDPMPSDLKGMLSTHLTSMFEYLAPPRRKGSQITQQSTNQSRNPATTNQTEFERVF

[8] = molecular target: Cyclin-dependent kinase 4 (Homo sapiens, UniProt P11802); assay: Inhibition of CDK4 (unknown origin)

Chain of Nuclear factor NF-kappa-B complex (P19838 1-433 limits assumed): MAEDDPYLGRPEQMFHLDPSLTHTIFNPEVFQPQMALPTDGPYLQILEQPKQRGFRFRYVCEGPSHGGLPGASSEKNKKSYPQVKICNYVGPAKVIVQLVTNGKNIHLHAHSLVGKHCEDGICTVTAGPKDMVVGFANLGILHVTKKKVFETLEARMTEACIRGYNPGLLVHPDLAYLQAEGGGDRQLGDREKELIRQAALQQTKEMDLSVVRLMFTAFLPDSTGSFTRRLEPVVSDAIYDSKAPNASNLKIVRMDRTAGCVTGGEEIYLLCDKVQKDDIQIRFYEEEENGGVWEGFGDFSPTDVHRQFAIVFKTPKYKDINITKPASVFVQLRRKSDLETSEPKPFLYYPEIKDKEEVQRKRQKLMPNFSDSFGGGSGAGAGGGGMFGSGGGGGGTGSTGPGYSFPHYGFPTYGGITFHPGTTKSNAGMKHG
Chain of Nuclear factor NF-kappa-B complex (Q00653 1-454 limits assumed): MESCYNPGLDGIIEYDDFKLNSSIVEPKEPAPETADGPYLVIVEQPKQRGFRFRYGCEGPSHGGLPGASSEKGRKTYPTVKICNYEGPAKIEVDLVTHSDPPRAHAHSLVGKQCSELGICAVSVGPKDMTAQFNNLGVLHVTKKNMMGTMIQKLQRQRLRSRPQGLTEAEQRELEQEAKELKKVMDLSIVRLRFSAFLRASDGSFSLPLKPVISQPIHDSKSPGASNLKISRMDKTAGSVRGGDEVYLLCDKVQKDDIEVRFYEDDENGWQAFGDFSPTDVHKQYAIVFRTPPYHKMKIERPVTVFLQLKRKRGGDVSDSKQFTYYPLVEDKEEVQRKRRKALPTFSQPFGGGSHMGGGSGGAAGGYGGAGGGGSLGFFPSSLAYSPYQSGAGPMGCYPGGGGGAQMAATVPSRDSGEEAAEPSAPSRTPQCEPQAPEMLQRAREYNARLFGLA
Chain of Nuclear factor NF-kappa-B complex (Q04206 whole entry): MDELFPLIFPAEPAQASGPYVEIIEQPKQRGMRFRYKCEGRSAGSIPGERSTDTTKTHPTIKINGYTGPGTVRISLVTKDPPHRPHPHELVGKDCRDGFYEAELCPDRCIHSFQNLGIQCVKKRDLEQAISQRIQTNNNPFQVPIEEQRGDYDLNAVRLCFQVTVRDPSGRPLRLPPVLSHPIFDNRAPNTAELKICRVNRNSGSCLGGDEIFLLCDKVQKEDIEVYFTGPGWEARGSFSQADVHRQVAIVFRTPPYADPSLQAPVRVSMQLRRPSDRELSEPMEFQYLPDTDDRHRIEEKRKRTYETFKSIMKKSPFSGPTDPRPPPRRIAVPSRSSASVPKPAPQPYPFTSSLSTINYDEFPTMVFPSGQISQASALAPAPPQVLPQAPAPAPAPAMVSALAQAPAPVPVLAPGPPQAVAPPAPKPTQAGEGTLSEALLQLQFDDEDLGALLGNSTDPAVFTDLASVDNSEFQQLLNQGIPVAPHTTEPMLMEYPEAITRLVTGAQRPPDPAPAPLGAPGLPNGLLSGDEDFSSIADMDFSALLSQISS

- IC50 [1]: ≤ 0.01 µM
Compound: CC(C)C[C@H](NC(=O)[C@H](Cc1ccccc1)NC(=O)c1cnccn1)B(O)O [BORTEZOMIB]

- IC50 [3]: ≤ 1 µM
- IC50 [4]: ≤ 1 µM
- IC50 [5]: ≤ 1 µM
Compound: COc1cc(/C=C/C(=O)CC(=O)/C=C/c2ccc(O)c(OC)c2)ccc1O [CURCUMIN]

- IC50 [1]: ≤ 2 µM
Compound: O=C(Oc1ccccc1C(=O)O)c1ccccc1O [SALSALATE]

- IC50 [1]: 10 µM
Compound: O=C(O)c1cc(/N=N/c2ccc(S(=O)(=O)Nc3ccccn3)cc2)ccc1O [SULFASALAZINE]

- IC50 [1]: 0.0659 µM
Compound: C[C@@H]1C[C@H]2[C@@H]3CCC4=CC(=O)C=C[C@]4(C)C3=CC[C@]2(C)[C@@]1(O)C(=O)CO [VAMOROLONE]

- IC50 [8]: 0.4 µM
Compound: CN1CC[C@@H](c2c(O)cc(O)c3c(=O)cc(-c4ccc(C(F)(F)F)cc4Cl)oc23)[C@@H]1CO [VORUCICLIB]

More lines, now with the values behind:

Compound: CC(C)c1c2cc(-c3nc(Nc4ccc(N5CCNCC5)cn4)ncc3F)ccc2nn1C [CULMERCICLIB]
- IC50 [2]: 0.0024 µM

Compound: CNC(=O)c1nn(C)c2c1C(C)(C)Cc1cnc(Nc3ccc(N4CCN(C)CC4)cc3)nc1-2 [MILCICLIB]
- IC50 [6]: 0.045 µM

Compound: CN1CC[C@H](c2c(OP(=O)(O)O)cc(O)c3c(=O)cc(-c4ccccc4Cl)oc23)[C@H](O)C1 [TP-1287]
- IC50 [7]: 0.01 µM

Compound: CC(C)[C@]12O[C@H]1[C@@H]1O[C@]13[C@]1(O[C@H]1C[C@H]1C4=C(CC[C@@]13C)C(=O)OC4)[C@@H]2O [TRIPTOLIDE]
- IC50 [1]: 0.01 µM
